According to patent US10758534B2 (Vertex Pharmaceuticals Incorporated, priority 2014, dated 2020):

Biological target: T1, F508del (Homo sapiens, UniProt P13569, DEL508-508)
T1 construct: expressed in transfected cells
Experiment: Protocol 2: FRET membrane potential optical assay (VIPR), identification of correction compounds
Type: cell-based
Conditions: Table 3; compounds of Table 1 as modulators of CFTR activity; protocol not stated
Summary of the method: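 Correction of the F508del trafficking defect is scored as forskolin (10 μM)/genistein (20 μM)-stimulated Cl^− efflux in NIH3T3 mouse fibroblasts after a 16 hr, 37° C. compound exposure. Depolarization was followed optically using voltage-sensing FRET dyes.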

T1 sequence (P13569 with tags, fused parts or gaps DEL508-508): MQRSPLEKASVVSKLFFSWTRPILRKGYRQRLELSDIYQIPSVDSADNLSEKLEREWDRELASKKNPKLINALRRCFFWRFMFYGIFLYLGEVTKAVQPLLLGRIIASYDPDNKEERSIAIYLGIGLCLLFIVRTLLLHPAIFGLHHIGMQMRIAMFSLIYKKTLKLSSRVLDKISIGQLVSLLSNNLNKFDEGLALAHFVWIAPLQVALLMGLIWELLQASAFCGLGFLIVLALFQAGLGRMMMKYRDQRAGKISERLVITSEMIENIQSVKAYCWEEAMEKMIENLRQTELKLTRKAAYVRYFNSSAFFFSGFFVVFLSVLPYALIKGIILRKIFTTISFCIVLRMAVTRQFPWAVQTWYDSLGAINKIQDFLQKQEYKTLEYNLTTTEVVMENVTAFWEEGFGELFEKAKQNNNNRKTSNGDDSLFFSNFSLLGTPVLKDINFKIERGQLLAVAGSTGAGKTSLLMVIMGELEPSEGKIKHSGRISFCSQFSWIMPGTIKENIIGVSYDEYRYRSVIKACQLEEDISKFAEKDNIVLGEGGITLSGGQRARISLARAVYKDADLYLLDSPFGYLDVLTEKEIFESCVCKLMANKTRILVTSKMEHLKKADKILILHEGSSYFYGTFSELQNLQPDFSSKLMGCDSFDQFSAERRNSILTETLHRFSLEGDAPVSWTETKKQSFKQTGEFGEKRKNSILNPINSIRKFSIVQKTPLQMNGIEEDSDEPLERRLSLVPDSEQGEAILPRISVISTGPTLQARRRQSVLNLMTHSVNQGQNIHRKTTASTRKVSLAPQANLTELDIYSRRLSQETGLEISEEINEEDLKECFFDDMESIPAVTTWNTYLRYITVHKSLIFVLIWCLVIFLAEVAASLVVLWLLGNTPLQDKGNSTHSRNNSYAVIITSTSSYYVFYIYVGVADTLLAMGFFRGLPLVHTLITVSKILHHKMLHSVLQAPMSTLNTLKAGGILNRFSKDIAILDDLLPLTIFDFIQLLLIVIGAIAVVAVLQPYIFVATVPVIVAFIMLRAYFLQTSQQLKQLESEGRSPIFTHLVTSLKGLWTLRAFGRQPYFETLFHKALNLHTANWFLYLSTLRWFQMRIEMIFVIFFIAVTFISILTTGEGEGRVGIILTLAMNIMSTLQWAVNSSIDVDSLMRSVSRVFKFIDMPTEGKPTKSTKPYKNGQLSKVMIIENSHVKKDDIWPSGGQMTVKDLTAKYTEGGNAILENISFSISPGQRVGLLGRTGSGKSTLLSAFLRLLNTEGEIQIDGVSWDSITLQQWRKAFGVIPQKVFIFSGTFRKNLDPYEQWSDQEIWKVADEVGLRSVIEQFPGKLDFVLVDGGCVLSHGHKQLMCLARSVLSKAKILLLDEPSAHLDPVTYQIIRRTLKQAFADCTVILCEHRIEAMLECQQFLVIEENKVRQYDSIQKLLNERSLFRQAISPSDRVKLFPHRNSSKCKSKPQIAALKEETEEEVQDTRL

Compound: CC(C)c1ccc(-c2nc(C(C)(C)C)ccc2C(=O)NS(=O)(=O)c2cccc(N)c2)cc1 [Compound 314, N-(3-aminophenyl)sulfonyl-6-tert-butyl-2-(4-isopropylphenyl)pyridine-3-carboxamide]
- EC30: +++ (“+++” means <3 uM)

Compound: Cc1cccc(C)c1Cn1nc(-c2cccc(C(F)F)c2)cc1C(=O)NS(=O)(=O)c1ccccc1 [Compound 315, N-(benzenesulfonyl)-5-[3-(difluoromethyl)phenyl]-2-[(2,6-dimethylphenyl)methyl]pyrazole-3-carboxamide]
- EC30: +++ (“+++” means <3 uM)

Compound: Cc1cccc(C)c1Cn1nc(-c2ccc(C(F)(F)F)cc2)cc1C(=O)NS(=O)(=O)c1ccccc1 [Compound 316, N-(benzenesulfonyl)-2-[(2,6-dimethylphenyl)methyl]-5-[4-(trifluoromethyl)phenyl]pyrazole-3-carboxamide]
- EC30: +++ (“+++” means <3 uM)

Compound: Cc1cc(C)c(C)c(Cn2nc(C(C)(C)C)cc2C(=O)NS(=O)(=O)c2cccc(N)c2)c1C [Compound 317, N-(3-aminophenyl)sulfonyl-5-tert-butyl-2-[(2,3,5,6-tetramethylphenyl)methyl]pyrazole-3-carboxamide]
- EC30: +++ (“+++” means <3 uM)

Compound: Cc1cc(C)c(Oc2nc(-c3cc(F)cc(OCC(C)C)c3)ccc2C(=O)NS(=O)(=O)c2cc[nH]n2)c(C)c1 [Compound 318, 6-(3-fluoro-5-isobutoxy-phenyl)-N-(1H-pyrazol-3-ylsulfonyl)-2-(2,4,6-trimethylphenoxy)pyridine-3-carboxamide]
- EC30: +++ (“+++” means <3 uM)

Compound: Cc1cc(C)c(CN2Cc3ccccc3C2C(=O)NS(=O)(=O)c2cccc(=O)[nH]2)c(C)c1 (stereo not shown) [Compound 319, N-[(6-oxo-1H-pyridin-2-yl)sulfonyl]-2-[(2,4,6-trimethylphenyl)methyl]isoindoline-1-carboxamide]
- EC30: ++ (“++” means between 3 uM and 10 uM)

Compound: Cc1cc(C)c(Oc2nc(-c3ccc(OCC(C)C)cc3)ccc2C(=O)NS(=O)(=O)c2cccc(N)n2)c(C)c1 [Compound 320, N-[(6-amino-2-pyridyl)sulfonyl]-6-(4-isobutoxyphenyl)-2-(2,4,6-trimethylphenoxy)pyridine-3-carboxamide]
- EC30: +++ (“+++” means <3 uM)

Compound: CC1CCCN(c2nc(-c3ccc(OC(C)C)nc3)ccc2C(=O)NS(=O)(=O)c2cccc(N)n2)C1 (stereo not shown) [Compound 321, N-[(6-amino-2-pyridyl)sulfonyl]-6-(6-isopropoxy-3-pyridyl)-2-(3-methyl-1-piperidyl)pyridine-3-carboxamide]
- EC30: +++ (“+++” means <3 uM)

Compound: Cc1cc(C)c(Oc2nc(C(C)(C)C)ccc2C(=O)NS(=O)(=O)c2ccccc2N)c(C)c1 [Compound 322, N-(2-aminophenyl)sulfonyl-6-tert-butyl-2-(2,4,6-trimethylphenoxy)pyridine-3-carboxamide]
- EC30: +++ (“+++” means <3 uM)

Compound: Cc1cccc(C)c1Cn1nc(CCC(C)(C)C)cc1C(=O)NS(=O)(=O)c1cccc(N)c1 [Compound 323, N-(3-aminophenyl)sulfonyl-5-(3,3-dimethylbutyl)-2-[(2,6-dimethylphenyl)methyl]pyrazole-3-carboxamide]
- EC30: +++ (“+++” means <3 uM)

Compound: Cc1cc(C)c(Cc2nn(C(C)(C)C)cc2C(=O)NS(=O)(=O)c2cccc(N)c2)c(C)c1 [Compound 324, N-(3-aminophenyl) sulfonyl-1-tert-butyl-3-[(2,4,6-trimethylphenyl)methyl]pyrazole-4-carboxamide]
- EC30: ++ (“++” means between 3 uM and 10 uM)

Compound: Cc1cc(C)c(Oc2nn(C(C)(C)C)cc2C(=O)NS(=O)(=O)c2cccc(N)c2)c(C)c1 [Compound 325, N-(3-aminophenyl)sulfonyl-1-tert-butyl-3-(2,4,6-trimethylphenoxy)pyrazole-4-carboxamide]
- EC30: +++ (“+++” means <3 uM)

Compound: Cn1ccc2cccc(Oc3nc(C(C)(C)C)ccc3C(=O)NS(=O)(=O)c3ccccc3)c21 [Compound 326, N-(benzenesulfonyl)-6-tert-butyl-2-(1-methylindol-7-yl)oxy-pyridine-3-carboxamide]
- EC30: +++ (“+++” means <3 uM)
